The values that follow come from patent US5179085A, “N-substituted α-amino acids and derivatives thereof having pharmaceutical activity” (Warner-Lambert Company, priority 1991, dated 1993).

Counter-ions that a name gives are not always drawn.

As a reminder, the IC50 is the midpoint of a concentration-inhibition curve. Low readings indicate inhibition by little substance, high ones a need for much substance.

One assay has as its target NMDA receptors. Put plainly: [3H]CPP NMDA receptor binding assay. As to conditions: for IC50: [3H]CPP displacement; for % Inhibition (10^-4 M): at 10^-4 M. As to the method:
(§1) Thus, the compounds of Formula I were tested in vitro for their ability to block NMDA receptors in a binding assay with [^3 H]3-(2-carboxypiperazin-4-yl)propyl-1-phosphonic acid ([^3 H]CPP) carried out essentially by a method previously described by Murphy, D. E., et al, Journal of Pharmacology and Experimental Therapeutics, Volume 240, pp 778-784 (1987); and for their ability to inhibit glutamate-induced [Ca^++ ] influx (GCI) carried out essentially by a method previously described by Marcoux, F. W., et al, "Sigma and Phencyclidine like Compounds as Molecular Probes in Biology", pp 735-746, Domino, E. F. and J. N. Kamenka, eds., NPP Books, Ann Arbor, Michigan, 1988 and Choi, D. W., et al, Journal of Neuroscience, Volume 8, pp 185-196 (1988). The aforementioned lest methods are incorporated herein by reference.

The test system of assay [1] is glutamate-induced [Ca^++ ] influx. Put plainly: Inhibition of glutamate-induced [Ca++] influx (GCI). The class given is cell-based. As to the method: as §1

In the case of `O=C(O)CNCC=CCP(=O)(O)O` [Example 8o, N-(4-Phosphono-2-butenyl)glycine, monohydrochloride], the half-inhibitory concentration (IC50) at NMDA receptors was found to be 1.2 µM; in assay [1], 18 µM.

Turning to `O=C(O)CNCCc1cccc(CP(=O)(O)O)c1` [Example 8g, N-[2-[3-(Phosphonomethyl)phenyl]ethyl] glycine, monohydrochloride], in the assay with NMDA receptors, the “% Inhibition (10^-4 M)” value worked out at 86%. Consider `CC(NCC=CCP(=O)(O)O)C(=O)O.Cl` (racemic) [Example 8p, N-(4-Phosphono-2-butenyl)-DL-alanine, monohydrochloride], for which the “% Inhibition (10^-4 M)” value in the assay on NMDA receptors was 58%.

On to `O=C(O)CNCc1cccc(CP(=O)(O)O)c1` [Example 8d, N-[[3-(Phosphonomethyl)phenyl]methyl]glycine, hydrochloride], for which the IC50 at NMDA receptors worked out at 2.24 µM; in assay [1], 79 µM. As to `O=C(O)CNCCC=CP(=O)(O)O` (mixture of isomers) [Example 10a, N-[4-Phosphono-3-butenyl)glycine, diammonium salt. (Mixture of E and Z isomers)], the 50% inhibitory concentration (IC50) on NMDA receptors was found to be 2.45 µM.

As to `O=C(O)CNCc1ccc(CP(=O)(O)O)cc1` [Example 8h, N-[[4-(Phosphonomethyl)phenyl]methyl]glycine, monohydrochloride], the IC50 stood at 5.2 µM at NMDA receptors and 120 µM in assay [1].
